Experimental data as given in paper PMC5218480 (PLoS ONE, 2017).

System: MV-4-11 cells
Test: Gene expression microarray analysis (Affymetrix PrimeView) and GSEA
Type: cell-based, human
Parameters: RFU PODN (11730768_x_at) / Fold change /veh PODN (11730768_x_at) / RFU LINC00158 (11744669_a_at) / Fold change /veh LINC00158 (11744669_a_at) / RFU DUSP10 (11751237_a_at) / Fold change /veh DUSP10 (11751237_a_at) / RFU ID3 (11757404_x_at) / Fold change /veh ID3 (11757404_x_at) / RFU PLEKHG5 (11737974_s_at) / Fold change /veh PLEKHG5 (11737974_s_at) / RFU LRRC4B (11730491_at) / Fold change /veh LRRC4B (11730491_at) / RFU GIMAP4 (11747438_a_at) / Fold change /veh GIMAP4 (11747438_a_at) / RFU KRT8 (11758183_x_at) / Fold change /veh KRT8 (11758183_x_at) / RFU CNN1 (11734310_a_at) / Fold change /veh CNN1 (11734310_a_at) / RFU VPS37D (11726825_at) / Fold change /veh VPS37D (11726825_at) / RFU C10orf10 (11716522_x_at) / Fold change /veh C10orf10 (11716522_x_at) / RFU KIR2DL2 /// KIR2DL4 /// KIR2DL5A /// KIR2DL5B /// KIR2DS1 /// KIR2DS2 /// KIR2DS3 /// KIR2DS4 /// KIR3DL3 /// KIR3DL3 /// KIR3DS1 (11738374_at) / Fold change /veh KIR2DL2 /// KIR2DL4 /// KIR2DL5A /// KIR2DL5B /// KIR2DS1 /// KIR2DS2 /// KIR2DS3 /// KIR2DS4 /// KIR3DL3 /// KIR3DL3 /// KIR3DS1 (11738374_at) / RFU C1QL1 (11718748_at) / Fold change /veh C1QL1 (11718748_at) / RFU TMPRSS4 (11747572_a_at) / Fold change /veh TMPRSS4 (11747572_a_at) / RFU HAMP (11756126_x_at) / Fold change /veh HAMP (11756126_x_at) / RFU RNFT2 (11725882_a_at) / Fold change /veh RNFT2 (11725882_a_at) / RFU NR4A2 (11747474_a_at) / Fold change /veh NR4A2 (11747474_a_at) / RFU ABCC12 (11746883_a_at) / Fold change /veh ABCC12 (11746883_a_at) / RFU TMEM136 (11760407_x_at) / Fold change /veh TMEM136 (11760407_x_at) / RFU CLDN22 /// WWC2 (11732394_at) / Fold change /veh CLDN22 /// WWC2 (11732394_at) / RFU HLA-DPB1 (11760878_x_at) / Fold change /veh HLA-DPB1 (11760878_x_at) / RFU SPINT1 (11716480_a_at) / Fold change /veh SPINT1 (11716480_a_at) / RFU GAP43 (11754022_s_at) / Fold change /veh GAP43 (11754022_s_at) / RFU A4GNT (11735810_at) / Fold change /veh A4GNT (11735810_at) / RFU PRB3 (11715151_x_at) / Fold change /veh PRB3 (11715151_x_at) / RFU TUBB4B (11761932_at) / Fold change /veh TUBB4B (11761932_at) / RFU CAPN14 (11732068_a_at) / Fold change /veh CAPN14 (11732068_a_at) / RFU TMCC2 (11721928_a_at) / Fold change /veh TMCC2 (11721928_a_at) / RFU IRGQ (11745062_a_at) / Fold change /veh IRGQ (11745062_a_at) / RFU FAM174B (11720279_a_at) / Fold change /veh FAM174B (11720279_a_at) / RFU TMPRSS4 (11748680_a_at) / Fold change /veh TMPRSS4 (11748680_a_at) / RFU FAM212B (11763350_a_at) / Fold change /veh FAM212B (11763350_a_at) / RFU PLEKHG5 (11743358_a_at) / Fold change /veh PLEKHG5 (11743358_a_at) / RFU ZSCAN30 (11745921_a_at) / Fold change /veh ZSCAN30 (11745921_a_at) / RFU CMKLR1 (11741424_a_at) / Fold change /veh CMKLR1 (11741424_a_at) / RFU LOC101060620 /// MAPK8IP1 (11723275_at) / Fold change /veh LOC101060620 /// MAPK8IP1 (11723275_at) / RFU SPTSSB (11747773_x_at) / Fold change /veh SPTSSB (11747773_x_at) / RFU PRSS12 (11739890_at) / Fold change /veh PRSS12 (11739890_at) / RFU BIN1 (11741810_x_at) / Fold change /veh BIN1 (11741810_x_at) / RFU WNT11 (11732464_a_at) / Fold change /veh WNT11 (11732464_a_at) / RFU C10orf10 (11716521_a_at) / Fold change /veh C10orf10 (11716521_a_at) / RFU C5orf56 (11738089_at) / Fold change /veh C5orf56 (11738089_at) / RFU CYB561 (11721691_x_at) / Fold change /veh CYB561 (11721691_x_at) / RFU ANKRD19P (11752326_a_at) / Fold change /veh ANKRD19P (11752326_a_at) / RFU OR2T12 /// OR2T33 /// OR2T8 (11738714_s_at) / Fold change /veh OR2T12 /// OR2T33 /// OR2T8 (11738714_s_at) / RFU VCAN (11748164_a_at) / Fold change /veh VCAN (11748164_a_at) / RFU JSRP1 (11732532_at) / Fold change /veh JSRP1 (11732532_at) / RFU KRTAP10-11 (11738290_x_at) / Fold change /veh KRTAP10-11 (11738290_x_at) / RFU MYO3A (11730013_a_at) / Fold change /veh MYO3A (11730013_a_at) / RFU EBF3 (11725865_a_at) / Fold change /veh EBF3 (11725865_a_at) / RFU CAMK2N1 (11719241_x_at) / Fold change /veh CAMK2N1 (11719241_x_at) / RFU C5orf56 (11738088_a_at) / Fold change /veh C5orf56 (11738088_a_at) / RFU OLFML3 (11715873_a_at) / Fold change /veh OLFML3 (11715873_a_at) / RFU LOC100653217 /// NTM (11731650_a_at) / Fold change /veh LOC100653217 /// NTM (11731650_a_at) / RFU MAPK11 (11762145_a_at) / Fold change /veh MAPK11 (11762145_a_at) / RFU FIZ1 (11724087_x_at) / Fold change /veh FIZ1 (11724087_x_at) / RFU OASL (11726364_x_at) / Fold change /veh OASL (11726364_x_at) / RFU SOX15 (11748057_x_at) / Fold change /veh SOX15 (11748057_x_at) / RFU CD79A (11719716_a_at) / Fold change /veh CD79A (11719716_a_at) / RFU HIST1H1D (11736915_at) / Fold change /veh HIST1H1D (11736915_at) / RFU CASKIN2 (11723855_a_at) / Fold change /veh CASKIN2 (11723855_a_at) / RFU LOC730098 (11760151_x_at) / Fold change /veh LOC730098 (11760151_x_at) / RFU OR4N2 (11742367_at) / Fold change /veh OR4N2 (11742367_at) / RFU PRRT2 (11749266_a_at) / Fold change /veh PRRT2 (11749266_a_at) / RFU SNX32 (11753110_a_at) / Fold change /veh SNX32 (11753110_a_at) / RFU CDHR5 (11726645_a_at) / Fold change /veh CDHR5 (11726645_a_at) / RFU RCAN1 (11760418_a_at) / Fold change /veh RCAN1 (11760418_a_at) / RFU FAM167A (11723789_a_at) / Fold change /veh FAM167A (11723789_a_at) / RFU FAM26E (11764081_at) / Fold change /veh FAM26E (11764081_at) / RFU ISYNA1 (11749810_s_at) / Fold change /veh ISYNA1 (11749810_s_at) / RFU ACY1 (11761880_at) / Fold change /veh ACY1 (11761880_at) / RFU 11764098_at / Fold change /veh 11764098_at / RFU SAMD14 (11745864_x_at) / Fold change /veh SAMD14 (11745864_x_at) / RFU NPB (11741838_a_at) / Fold change /veh NPB (11741838_a_at) / RFU TMPRSS6 (11731388_a_at) / Fold change /veh TMPRSS6 (11731388_a_at) / RFU KRTAP10-2 (11738614_at) / Fold change /veh KRTAP10-2 (11738614_at) / RFU ARHGAP8 /// PRR5-ARHGAP8 (11727945_x_at) / Fold change /veh ARHGAP8 /// PRR5-ARHGAP8 (11727945_x_at) / RFU KRTAP5-7 /// NADSYN1 (11734609_at) / Fold change /veh KRTAP5-7 /// NADSYN1 (11734609_at) / RFU RASL12 (11751679_a_at) / Fold change /veh RASL12 (11751679_a_at) / RFU CDKN2B (11736163_a_at) / Fold change /veh CDKN2B (11736163_a_at) / RFU PRF1 (11729649_at) / Fold change /veh PRF1 (11729649_at) / RFU, ZNF638 /// ZNF638-IT1 / Fold change vs veh, ZNF638 /// ZNF638-IT1 / RFU, PANK3 / Fold change vs veh, PANK3 / RFU, SH3YL1 / Fold change vs veh, SH3YL1 / RFU, ZEB2 / Fold change vs veh, ZEB2 / RFU, NRIP1 / Fold change vs veh, NRIP1 / RFU, PTTG1IP / Fold change vs veh, PTTG1IP / RFU, CAPN2 / Fold change vs veh, CAPN2 / RFU, MED14 / Fold change vs veh, MED14 / RFU, SNORA58 / Fold change vs veh, SNORA58 / RFU, C1orf63 / Fold change vs veh, C1orf63 / RFU, LRRFIP1 / Fold change vs veh, LRRFIP1 / RFU, NDUFAF7 / Fold change vs veh, NDUFAF7 / RFU, SLC12A2 / Fold change vs veh, SLC12A2 / RFU, IBTK / Fold change vs veh, IBTK / RFU, ESF1 / Fold change vs veh, ESF1 / Fold change vs veh, TMEM50B / RFU, TAOK1 / Fold change vs veh, TAOK1 / RFU, ACBD3 / Fold change vs veh, ACBD3 / RFU, TMA16 / Fold change vs veh, TMA16 / RFU, RWDD3 / Fold change vs veh, RWDD3 / RFU, BCAT1 / Fold change vs veh, BCAT1 / RFU, EDEM3 / Fold change vs veh, EDEM3 / RFU, TMEM33 / Fold change vs veh, TMEM33 / RFU, WDR75 / Fold change vs veh, WDR75 / RFU, AHCTF1 / Fold change vs veh, AHCTF1 / RFU, TFRC / Fold change vs veh, TFRC / RFU, ZDHHC17 / Fold change vs veh, ZDHHC17 / RFU, NOM1 / Fold change vs veh, NOM1 / RFU, ARL8B / Fold change vs veh, ARL8B / RFU, ZBTB11 / Fold change vs veh, ZBTB11 / RFU, TAMM41 / Fold change vs veh, TAMM41 / RFU, KIAA1704 /// LOC100996395 / Fold change vs veh, KIAA1704 /// LOC100996395 / RFU, ING1 / Fold change vs veh, ING1 / RFU, TRMT61B / Fold change vs veh, TRMT61B / RFU, FUBP3 / Fold change vs veh, FUBP3 / RFU, TP53 / Fold change vs veh, TP53 / RFU, TNKS2 / Fold change vs veh, TNKS2 / RFU, ZFP14 / Fold change vs veh, ZFP14 / RFU, ACTR2 / Fold change vs veh, ACTR2 / RFU, PPP3R1 / Fold change vs veh, PPP3R1 / RFU, PIK3R1 / Fold change vs veh, PIK3R1 / RFU, HNRNPA1 / Fold change vs veh, HNRNPA1 / RFU, RNF170 / Fold change vs veh, RNF170 / RFU, ZNF28 / Fold change vs veh, ZNF28 / RFU, RNGTT / Fold change vs veh, RNGTT / RFU, OGT / Fold change vs veh, OGT / RFU, BRD1 / Fold change vs veh, BRD1 / RFU, MARS / Fold change vs veh, MARS / RFU, ZNF655 / Fold change vs veh, ZNF655 / RFU, FAHD1 / Fold change vs veh, FAHD1 / RFU, BDP1 / Fold change vs veh, BDP1 / RFU, LRRCC1 / Fold change vs veh, LRRCC1 / RFU, ARID1A / Fold change vs veh, ARID1A / RFU, ZNF146 / Fold change vs veh, ZNF146 / RFU, ZNF330 / Fold change vs veh, ZNF330 / RFU, GPN3 / Fold change vs veh, GPN3 / RFU, C9orf123 / Fold change vs veh, C9orf123 / RFU, N4BP2L2 / Fold change vs veh, N4BP2L2 / RFU, ARFIP1 / Fold change vs veh, ARFIP1 / RFU, FAM179B / Fold change vs veh, FAM179B / RFU, BCL10 / Fold change vs veh, BCL10 / RFU, UHRF1BP1L / Fold change vs veh, UHRF1BP1L / RFU, BET1 / Fold change vs veh, BET1 / RFU, CNOT2 / Fold change vs veh, CNOT2 / RFU, ZNF268 / Fold change vs veh, ZNF268 / Fold change vs veh, ZNF507 / RFU, DGCR2 / Fold change vs veh, DGCR2 / RFU, WDSUB1 / Fold change vs veh, WDSUB1 / Fold change vs veh, HSP90B1 /// MIR3652 / RFU, ADSS / Fold change vs veh, ADSS / RFU, GK / Fold change vs veh, GK / RFU, ZNF148 / Fold change vs veh, ZNF148 / RFU, TAF9 / Fold change vs veh, TAF9 / RFU, SLC1A5 / Fold change vs veh, SLC1A5 / RFU, SLMO2 / Fold change vs veh, SLMO2 / RFU, ABCC4 / Fold change vs veh, ABCC4 / RFU, LOC101060439 /// RAP1B / Fold change vs veh, LOC101060439 /// RAP1B / RFU, RFX7 / Fold change vs veh, RFX7 / RFU, GTPBP10 / Fold change vs veh, GTPBP10 / RFU, CNEP1R1 / Fold change vs veh, CNEP1R1 / RFU, BIVM-ERCC5 /// ERCC5 / Fold change vs veh, BIVM-ERCC5 /// ERCC5 / RFU, ILF3 / Fold change vs veh, ILF3 / RFU 11762660_at / Fold change /veh 11762660_at / RFU VCAN (11757783_s_at) / Fold change /veh VCAN (11757783_s_at) / RFU DDX43 (11728927_at) / Fold change /veh DDX43 (11728927_at) / RFU KRT8 (11758188_x_at) / Fold change /veh KRT8 (11758188_x_at) / RFU NKD1 (11759106_at) / Fold change /veh NKD1 (11759106_at) / RFU SRD5A1 (11742802_a_at) / Fold change /veh SRD5A1 (11742802_a_at) / RFU TPSAB1 /// TPSB2 (11721975_s_at) / Fold change /veh TPSAB1 /// TPSB2 (11721975_s_at) / RFU GSTM3 (11746129_a_at) / Fold change /veh GSTM3 (11746129_a_at) / RFU IL23R (11737362_x_at) / Fold change /veh IL23R (11737362_x_at) / RFU TMEM51 (11727254_a_at) / Fold change /veh TMEM51 (11727254_a_at) / RFU PIWIL2 (11732686_x_at) / Fold change /veh PIWIL2 (11732686_x_at) / RFU ORM1 (11744905_x_at) / Fold change /veh ORM1 (11744905_x_at) / RFU CCDC152 (11743942_at) / Fold change /veh CCDC152 (11743942_at) / RFU ECM1 (11717891_a_at) / Fold change /veh ECM1 (11717891_a_at) / RFU IL23R (11748794_a_at) / Fold change /veh IL23R (11748794_a_at) / RFU TNFAIP8L3 (11732012_x_at) / Fold change /veh TNFAIP8L3 (11732012_x_at) / RFU MBOAT4 (11741988_at) / Fold change /veh MBOAT4 (11741988_at) / RFU 11764193_at / Fold change /veh 11764193_at / RFU TMEM53 (11763286_at) / Fold change /veh TMEM53 (11763286_at) / RFU MAGEB2 (11727129_at) / Fold change /veh MAGEB2 (11727129_at) / RFU TMEM200A (11744735_a_at) / Fold change /veh TMEM200A (11744735_a_at) / RFU CCDC152 (11751479_a_at) / Fold change /veh CCDC152 (11751479_a_at) / RFU FAM211A (11726209_a_at) / Fold change /veh FAM211A (11726209_a_at) / RFU RGS16 (11746705_a_at) / Fold change /veh RGS16 (11746705_a_at) / RFU VCAN (11755009_s_at) / Fold change /veh VCAN (11755009_s_at) / RFU RHOB (11743442_s_at) / Fold change /veh RHOB (11743442_s_at) / RFU RGS16 (11720943_a_at) / Fold change /veh RGS16 (11720943_a_at) / RFU RGS16 (11720944_at) / Fold change /veh RGS16 (11720944_at) / RFU, VPS4B / Fold change vs veh, VPS4B / RFU, CREB1 / Fold change vs veh, CREB1 / RFU, DNAJC13 / Fold change vs veh, DNAJC13 / RFU, GNAQ / Fold change vs veh, GNAQ / RFU, CDK5R1 / Fold change vs veh, CDK5R1 / RFU, ZRANB3 / Fold change vs veh, ZRANB3 / RFU, CUL4A / Fold change vs veh, CUL4A / RFU, CCNY / Fold change vs veh, CCNY / RFU, UFL1 / Fold change vs veh, UFL1 / RFU, COG3 / Fold change vs veh, COG3 / RFU, DIAPH2 / Fold change vs veh, DIAPH2 / RFU, SKA2 / Fold change vs veh, SKA2 / RFU, AFF3 / Fold change vs veh, AFF3 / RFU, LMF1 / Fold change vs veh, LMF1 / RFU, IPO11 / Fold change vs veh, IPO11 / RFU, DFFB / Fold change vs veh, DFFB / RFU, FOXP1 / Fold change vs veh, FOXP1 / RFU, CARD8 / Fold change vs veh, CARD8 / RFU, STRN3 / Fold change vs veh, STRN3 / RFU, ADK / Fold change vs veh, ADK / RFU, RASSF2 / Fold change vs veh, RASSF2 / RFU, WIPF1 / Fold change vs veh, WIPF1 / RFU, LARP1B / Fold change vs veh, LARP1B / RFU, RASA1 / Fold change vs veh, RASA1 / RFU, RB1 / Fold change vs veh, RB1 / RFU, PPFIA1 / Fold change vs veh, PPFIA1 / RFU, MAT2A / Fold change vs veh, MAT2A / RFU, CCT5 / Fold change vs veh, CCT5 / RFU, WDR92 / Fold change vs veh, WDR92 / RFU, CUX1 / Fold change vs veh, CUX1 / RFU, TTC7A / Fold change vs veh, TTC7A / RFU, TMEM135 / Fold change vs veh, TMEM135 / RFU, DEPTOR / Fold change vs veh, DEPTOR / RFU, CPM / Fold change vs veh, CPM / RFU, DNAJB6 / Fold change vs veh, DNAJB6 / RFU, CACNA2D3 / Fold change vs veh, CACNA2D3 / RFU, DTX4 / Fold change vs veh, DTX4 / RFU, TFCP2 / Fold change vs veh, TFCP2 / RFU, GMCL1 /// GMCL1P1 / Fold change vs veh, GMCL1 /// GMCL1P1 / RFU, AEBP2 / Fold change vs veh, AEBP2 / RFU, SNHG1 /// SNORD22 /// SNORD25 /// SNORD26 /// SNORD27 /// SNORD28 /// SNORD29 /// SNORD31 / Fold change vs veh, SNHG1 /// SNORD22 /// SNORD25 /// SNORD26 /// SNORD27 /// SNORD28 /// SNORD29 /// SNORD31 / Fold change (Aza/veh), C12orf56 (ProbeSet 11735607_a_at) / Fold change (ACY-1035/veh), C12orf56 (ProbeSet 11735607_a_at) / Fold change (Aza/veh), FGFR1OP (ProbeSet 11751329_s_at) / Fold change (ACY-1035/veh), FGFR1OP (ProbeSet 11751329_s_at) / Fold change (Aza/veh), VPS36 (ProbeSet 11739960_a_at) / Fold change (ACY-1035/veh), VPS36 (ProbeSet 11739960_a_at) / RFU SYPL1 (11715823_x_at) / Fold change /veh SYPL1 (11715823_x_at) / RFU IGFBP7 (11715501_s_at) / Fold change /veh IGFBP7 (11715501_s_at) / RFU REEP3 (11722064_at) / Fold change /veh REEP3 (11722064_at) / RFU IGLL1 (11728026_x_at) / Fold change /veh IGLL1 (11728026_x_at): dose or concentration left out as unconfirmed
Settings: MV-4-11 cells, 48 hours

SMILES: Nc1ncn([C@@H]2O[C@H](CO)[C@@H](O)[C@H]2O)c(=O)n1 [azacitidine]
- Fold change /veh PRF1 (11729649_at): 1.08
